{
  "source": "patent US20100069302A1",
  "about": "“SPECIFIC THERAPY AND MEDICAMENT USING INTEGRIN LIGANDS FOR TREATING CANCER” (priority 2007, published 2010)",
  "key": {"various brain tumors": {"test_system": "various brain tumors", "settings": "cited from earlier work"}, "[1]": {"test_system": "U251 human glioblastoma cells", "assay": "Rat orthotopic glioblastoma model radiotherapy, cilengitide scheduling experiments", "type": "in vivo, NIH mu nude rats", "settings": "for Days Post Implant (survival): listed as Rt + EMD, 4 mg/kg", "method": "NIH mu nude rats are anaesthetized, restrained, and injected intracerebrally 1 mm retro orbitally, 3 mm to the right of the bregma and at a depth of 2.5 mm with 5×10E5 U251 human glioblastoma cells suspended in 10 ul of culture medium, using a #2701 Hamilton syringe fitted with a 26 gauge needle, essentially as previously described (Engebraaten et al., 1999). After 14 days, cilengitide (4 mg/kg) is given as an intraperitoneal bolus in PBS, at various time (8 h, 4 h, 2 h, 1 h) prior to a single treatment with single, collimated, dorsal-ventral beam of 6 MV x-rays, so that 95-100% of the central axis dose of 25 Gy hit the tumor volume (Kim et al., 1999). Each of the 7 subsequent days the animals also received an identical i.p. bolus of cilengitide. The animals are maintained under ad libitum food and drink until they become moribund, or are sampled for tissue analysis (in the t-4 and t-8 h groups, where the animals are healthy past 230 days post tumor injection). A Kaplan-Meier survival curve is calculated and plotted (FIG. 1) from the raw data (Table 1). All animals in the RT monotherapy group died by 120 d."}, "[2]": {"test_system": "patients with newly diagnosed glioblastoma (GBM)", "assay": "Phase I/IIa trial of cilengitide and temozolomide with concomitant radiotherapy, then maintenance, in newly diagnosed glioblastoma", "type": "in vivo, human", "method": "Patients and methods: Fifty-two pts (PS 0-1: 92%, 2: 8%; median age 57 yrs) after biopsy (n=9/17%) or tumor resection (n=43/83%) were treated with standard TMZ/RT (Stupp et al. NEJM 2005). In addition Cilengitide (500 mg i.v., 2×/week) was started one week before TMZ/RT and given throughout for the duration of chemotherapy or until progression. Primary endpoint was progression free survival rate at 6 months (target: 65%). Patients were followed with MRI every 2 months. Histopathologic diagnosis and MRI imaging were independently reviewed, MGMT promoter methylation status was assessed in 45 (86.5%) pts."}, "[3]": {"test_system": "patients with recurrent glioblastoma (GBM)", "assay": "Phase IIa trial of cilengitide single agent therapy in patients with recurrent glioblastoma", "type": "in vivo, human", "procedure": "Background: The present phase IIa study was designed to evaluate the safety, toxicity, and clinical activity of the cyclic RGD pentapeptide cilengitide ((=cyclo-(Arg-Gly-Asp-DPhe-NMe-Val)), an inhibitor of integrins αvβ3 and αvβ5, as a single agent at doses of 500 and 2000 mg in patients (pts) with recurrent glioblastoma (GBM).\nMethods: In this multicenter, open-label, randomized, uncontrolled study, pts with GBM and measurable disease that had relapsed after previous therapy with temozolomide and radiotherapy were randomized to receive cilengitide at doses of either 500 mg or 2000 mg i.v., 2×/week, until progression.\nHistopathology diagnosis and MRI imaging were subject to independent blinded review. The primary endpoint was Progression Free Survival (PFS) at 6 months (mths). Secondary endpoints included response, survival, time to disease progression, safety, tolerability and pharmacokinetics."}, "NSCLC (A549)": {"test_system": "NSCLC (A549)", "assay": "Proliferation assay (vitronectin-coated plates, Alamar Blue)", "type": "cell-based", "settings": "A549, 72 hours; concentration held constant in combination with chemotherapeutic agents; read-out: constant EC50 concentration of alpha V integrin blocker", "method": "A549-DMEM containing 10% FCS (heat-inactivated) plus 2 mM glutamine,\n(§1) Briefly, 2.5×10e4 cells/well in RPMI containing 0.5% BSA and 25 mM Hepes pH 7.4 attached to non-tissue culture treated 96-well plates coated with serially diluted vitronectin, fibronectin, fibrinogen and collagen I for 60 minutes at 37° C. After washing to remove unbound cells the relative cell number is determined by incubation with hexosaminidase substrate. The colormetric reaction is read at 405 nm in a Genios plate reader (SLT). Proliferation assay Non-tissue cultures treated 96 well plates are coated using 100 ul/well of a 2 ug/ml vitronectin solution in PBS incubated overnight at 4° C. Cells are plated at 5×10e3 in 100 ul cell culture medium (as described above for each cell line). […] Plates are incubated for 72 hours, after which relative cell number is determined by the addition of 20 ul/well Alamar Blue (Resazurin) (Nakayama et al. 1997). After 4 hours of incubation at 37° C. relative fluorescent intensity is read in a Genios plate reader (SLT) at 535/590 nm (excitation/emission).\n(§2) Points are run in triplicate. Reagent blanks, containing media plus colormetric reagent without cells, are run on each plate. Blank values are subtracted from test values and are routinely 5-10% of uninhibited control values. […]"}, "[4]": {"test_system": "Endothelial Cells (HUVEC)", "assay": "Proliferation assay (vitronectin-coated plates, Alamar Blue)", "type": "cell-based", "settings": "72 hours, concentration held constant in combination with chemotherapeutic agents, read-out: constant EC50 concentration of alpha V integrin blocker", "method": "HUVEC-DMEM containing 10% FCS (heat-inactivated) plus 2 mM glutamine and 1 mM sodium pyruvate.\nas §1, §2"}},
  "note": "Several values for one entry are separate records, joined by “and”; a condition that tells them apart may be missing. Equal entries are not always repeated. Entries after “also recorded” stand apart in the source; their conditions may differ.",
  "data": [
    {"smiles": "CC(C)[C@H]1C(=O)N[C@@H](CCCN=C(N)N)C(=O)NCC(=O)N[C@@H](CC(=O)O)C(=O)N[C@H](Cc2ccccc2)C(=O)N1C", "note": "[Cilengitide, cyclo-(Arg-Gly-Asp-DPhe-NMeVal)]", "values": [
      {"measurement": "MTD in humans", "setting": "various brain tumors; human, in vivo", "result": "no known MTD"},
      {"measurement": "tolerability", "setting": "various brain tumors; human, in vivo", "result": "very well tolerated"},
      {"measurement": "response", "setting": "various brain tumors; in some of the GBM patients", "result": "an indication of response was seen"},
      {"measurement": "Days Post Implant (survival)", "setting": "[1]; cilengitide bolus 4 mg/kg i.p. 1 hour pre-irradiation (Rt 25 Gy) plus 7 daily boluses, all Sick (moribund)", "result": "112 days and 113 days and 130 days and 141 days"},
      {"measurement": "Days Post Implant (survival)", "setting": "[1]; cilengitide bolus 4 mg/kg i.p. 2 hours pre-irradiation (Rt 25 Gy) plus 7 daily boluses, all Sick (moribund)", "result": "120 days and 147 days and 162 days and 196 days"},
      {"measurement": "Days Post Implant (survival)", "setting": "[1]; cilengitide bolus 4 mg/kg i.p. 4 hours pre-irradiation (Rt 25 Gy) plus 7 daily boluses, Healthy/Alive animals not dead at day shown", "result": "238 days and 254 days"},
      {"measurement": "Days Post Implant (survival)", "setting": "[1]; cilengitide bolus 4 mg/kg i.p. 8 hours pre-irradiation (Rt 25 Gy) plus 7 daily boluses, Healthy/Alive animals not dead at day shown", "result": "287 days and 257 days"},
      {"measurement": "animals healthy, days post tumor injection", "setting": "[1]; t-4 and t-8 h groups, cilengitide 4 mg/kg plus 25 Gy", "result": "> 230", "unit": "days"},
      {"measurement": "haematological grade 3 and 4 toxicity: neutropenia", "setting": "[2]; Cilengitide 500 mg plus TMZ/RT, 5/52", "result": 9.6, "unit": "%"},
      {"measurement": "Treatment related non-hematologic grade 3 toxicities, patients", "setting": "[2]; Cilengitide 500 mg plus TMZ/RT, n=3/52", "result": 5.7, "unit": "%"},
      {"measurement": "PFS-6 rate", "setting": "[2]; Cilengitide 500 mg plus TMZ/RT, subgroup with methylated MGMT promoter (23/52)", "result": 91, "unit": "%"},
      {"measurement": "tolerability", "setting": "[2]; combination of Cilengitide and TMZ/RT", "result": "well tolerated"},
      {"measurement": "other adverse event", "setting": "[2]; one patient with a history of sigmoid diverticulosis", "result": "sigmoid perforation (grade 2)"},
      {"measurement": "median Overall Survival (mOS)", "setting": "[3]; 500 mg arm, i.v. 2x/week", "result": 6.5, "unit": "mths"},
      {"measurement": "tumor control, dose comparison", "setting": "[3]; 2000 mg 2x/week versus 500 mg, not statistically significant", "result": "trend towards better tumor control"},
      {"measurement": "12 mth overall survival (OS) rate", "setting": "[3]; 2000 mg arm, i.v. 2x/week", "result": 37.5, "unit": "%"},
      {"measurement": "median Overall Survival (mOS)", "setting": "[3]; 2000 mg arm, i.v. 2x/week", "result": 9.9, "unit": "mths"},
      {"measurement": "Treatment related NCI CTC grade 3 adverse events", "setting": "[3]; at 500 mg, each in 1 patient", "result": "elevated liver enzymes; also recorded: arthralgia/myalgia"},
      {"measurement": "Treatment related NCI CTC grade 3 adverse events", "setting": "[3]; at 2000 mg, in 1 patient", "result": "weight increase/edema"},
      {"measurement": "grade 4 therapy related AEs", "setting": "[3]; both arms", "result": "No grade 4 therapy related AEs"},
      {"measurement": "pts who received 12 or more cycles of therapy", "setting": "[3]; both arms, 10 pts (n=4 with 500 mg, n=6 with 2000 mg), 1 cycle=4 weeks", "result": 12.3, "unit": "%"},
      {"measurement": "pts still progression-free and on treatment", "setting": "[3]; both arms, six pts, at time abstract was issued", "result": 7.4, "unit": "%"},
      {"measurement": "cerebral hemorrhage", "setting": "[3]; possibly related either to the drug or to the disease", "result": "One CTC grade 2 cerebral hemorrhage"},
      {"measurement": "single agent activity", "setting": "[3]; recurrent glioblastoma", "result": "advantageous single agent activity"},
      {"measurement": "tolerability", "setting": "[3]; single agent therapy at two dose levels", "result": "tolerated well"},
      {"measurement": "EC50", "setting": "NSCLC (A549)", "result": 6, "unit": "nM"},
      {"measurement": "EC50", "setting": "[4]", "result": 0.2, "unit": "nM"}
    ]}
  ]
}
